Reference: the supplement of paper PMC10627819

Experiments:
S. aureus Newman [1] = assay: Bliss interaction score (quartile over a dose matrix) (fitness difference); higher = more antagonism (negative = synergy)
In short: (§1)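 The Bliss score was calculated by subtracting the expected fitness, the product of single-drug values, from the observed fitness. OD595 at entry into stationary phase, over the plate's robust no-drug mean and capped at 1, served as the fitness readout. Single-drug values were inferred from combination data, and scores are summarised by quartiles across technical, biological and donor/recipient replicates.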

S. pneumoniae D39V [2] = assay: as above
In short: as §1

S. aureus DSM 20231 [3] = assay: as above
In short: as §1

B. subtilis 168 [4] = assay: as above
In short: as §1

S. aureus Newman [5] = assay: fitness (endpoint OD595 vs no drug) (fraction); higher = more growth; details: main component drawn
In short: (§2)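 With the first reading as background, OD595 was measured every 30 min for 14 h in 384-well plates kept at 37 °C and inoculated at OD595 0.01. TSB, LB Lennox or CY was the medium. Fitness is the optical density at the transition into stationary phase divided by the robust mean of no-drug control wells, with a cap of 1.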

S. aureus DSM 20231 [6] = assay: as above
In short: as §2

S. pneumoniae D39V [7] = assay: as above
In short: as §2

B. subtilis 168 [8] = assay: as above
In short: as §2
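Wherever Bliss interaction score (quartile over a dose matrix) is given: first quartile when negative (synergy) and third quartile when positive (antagonism).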

COc1cccc2c1C(=O)c1c(O)c3c(c(O)c1C2=O)C[C@@](O)(C(=O)CO)C[C@@H]3O[C@H]1C[C@H](N)[C@H](O)[C@H](C)O1 [Doxorubicin] + CCCCCCCCCC(=O)N[C@@H]1[C@H]([C@@H]([C@H](O[C@H]1OC2=C3C=C4C=C2OC5=C(C=C(C=C5)[C@H]([C@H]6C(=O)N[C@@H](C7=C(C(=CC(=C7)O)OC8[C@H]([C@H]([C@@H]([C@H](O8)CO)O)O)O)C9=C(C=CC(=C9)[C@H](C(=O)N6)NC(=O)[C@@H]4NC(=O)[C@@H]1C2=CC(=CC(=C2)OC2=C(C=CC(=C2)[C@H](C(=O)N[C@H](CC2=CC(=C(O3)C=C2)Cl)C(=O)N1)N)O)O)O)C(=O)O)O[C@H]1[C@@H]([C@H]([C@@H]([C@H](O1)CO)O)O)NC(=O)C)Cl)CO)O)O [Teicoplanin]
main component drawn
Details	Bliss interaction score
B. subtilis 168 [4]	0.0931
S. aureus DSM 20231 [3]	0.0684
S. aureus Newman [1]	0.0378
S. pneumoniae D39V [2]	0.102

fitness, S. aureus Newman [5]
Details	first compound 0.625 µg/mL	first compound 1.25 µg/mL	first compound 2.5 µg/mL
partner 0.1562 µg/mL	0.886	0.809	0.728
partner 0.3125 µg/mL	0.872	0.808	0.713
partner 0.625 µg/mL	0.841	0.791	0.677

fitness
Details	first compound 0.625 µg/mL	first compound 1.25 µg/mL	first compound 2.5 µg/mL
S. aureus DSM 20231 [6], partner 0.1562 µg/mL, main component drawn	0.889	0.885	0.922
S. aureus DSM 20231 [6], partner 0.3125 µg/mL, main component drawn	0.979	0.965	0.939
S. aureus DSM 20231 [6], partner 0.625 µg/mL, main component drawn	≥ 1	≥ 1	0.978
S. aureus Newman [5], partner 0.62 µg/mL, one replicate	0.713	0.736	0.716
S. aureus Newman [5], partner 1.24 µg/mL, one replicate	0.666	0.613	0.622
S. aureus Newman [5], partner 2.48 µg/mL, one replicate	0.339	0.283	0.237

COc1cccc2c1C(=O)c1c(O)c3c(c(O)c1C2=O)C[C@@](O)(C(=O)CO)C[C@@H]3O[C@H]1C[C@H](N)[C@H](O)[C@H](C)O1 [Doxorubicin] + CCC[C@@H]1C[C@@H](C(=O)N[C@@H]([C@H]2O[C@H](SC)[C@H](O)[C@@H](O)[C@H]2O)[C@@H](C)O)N(C)C1 [Lincomycin]
Details	Bliss interaction score
B. subtilis 168 [4]	0.0938
S. aureus DSM 20231 [3]	0.167
S. aureus Newman [1]	0.164
S. pneumoniae D39V [2]	-0.0622

fitness
Details	partner 0.1 µg/mL	partner 0.2 µg/mL	partner 0.215 µg/mL	partner 0.4 µg/mL	partner 0.43 µg/mL	partner 0.8 µg/mL	partner 0.86 µg/mL
B. subtilis 168 [8], first compound 0.625 µg/mL	0.903	0.882	–	0.914	–	–	–
B. subtilis 168 [8], first compound 1.25 µg/mL	0.878	0.857	–	0.88	–	–	–
B. subtilis 168 [8], first compound 2.5 µg/mL	0.726	0.668	–	0.65	–	–	–
S. aureus DSM 20231 [6], first compound 0.625 µg/mL	0.816	0.757	–	–	–	–	–
S. aureus DSM 20231 [6], first compound 1.25 µg/mL	0.853	0.835	–	–	–	–	–
S. aureus DSM 20231 [6], first compound 2.5 µg/mL	0.875	0.73	–	–	–	–	–
S. pneumoniae D39V [7], first compound 0.25 µg/mL	–	0.57	0.75	0.337	0.626	0.0441	0.427
S. pneumoniae D39V [7], first compound 0.5 µg/mL	–	0.558	0.744	0.325	0.67	0.0345	0.372
S. pneumoniae D39V [7], first compound 1 µg/mL	–	0.465	0.792	0.278	0.664	0.0189	0.307

fitness, B. subtilis 168 [8], one replicate
Details	first compound 0.625 µg/mL	first compound 1.25 µg/mL	first compound 2.5 µg/mL
partner 0.8 µg/mL	0.959	0.831	0.638
partner 1.6 µg/mL	0.914	0.89	0.684

COc1cccc2c1C(=O)c1c(O)c3c(c(O)c1C2=O)C[C@@](O)(C(=O)CO)C[C@@H]3O[C@H]1C[C@H](N)[C@H](O)[C@H](C)O1 [Doxorubicin] + COc1cc(Cc2cnc(N)nc2N)cc(OC)c1OC [Trimethoprim]
Details	Bliss interaction score
B. subtilis 168 [4]	-0.0392
S. aureus DSM 20231 [3]	-0.0539
S. aureus Newman [1]	0.0879
S. pneumoniae D39V [2]	-0.179

fitness
Details	partner 0.125 µg/mL	partner 0.25 µg/mL	partner 0.5 µg/mL	partner 1 µg/mL
B. subtilis 168 [8], first compound 0.625 µg/mL	0.628	0.489	0.435	–
B. subtilis 168 [8], first compound 1.25 µg/mL	0.582	–	0.421	–
B. subtilis 168 [8], first compound 2.5 µg/mL	0.469	0.393	0.37	–
S. aureus DSM 20231 [6], first compound 0.625 µg/mL	0.683	0.557	0.175	0.0314
S. aureus DSM 20231 [6], first compound 1.25 µg/mL	0.742	0.56	0.0868	0.0177
S. aureus DSM 20231 [6], first compound 2.5 µg/mL	0.728	0.523	0.0302	0.0244

fitness, B. subtilis 168 [8], one replicate
Details	partner 0.1 µg/mL	partner 0.2 µg/mL	partner 0.4 µg/mL	partner 1 µg/mL	partner 2 µg/mL
first compound 0.625 µg/mL	0.868	0.699	0.524	0.278	0.222
first compound 1.25 µg/mL	0.849	0.646	0.504	0.228	0.152
first compound 2.5 µg/mL	0.799	0.559	0.391	0.126	0.0762

Cc1ncc([N+](=O)[O-])n1CCO [Metronidazole] + COc1cc(Cc2cnc(N)nc2N)cc(OC)c1OC [Trimethoprim]
Details	Bliss interaction score
B. subtilis 168 [4]	0.11
S. aureus DSM 20231 [3]	-0.0577
S. aureus Newman [1]	0.0902
S. pneumoniae D39V [2]	0.232

fitness
Details	first compound 0.625 µg/mL	first compound 1.25 µg/mL	first compound 2.5 µg/mL
B. subtilis 168 [8], partner 0.25 µg/mL	0.743	0.724	0.72
B. subtilis 168 [8], partner 0.5 µg/mL	0.568	0.531	0.471
S. aureus DSM 20231 [6], partner 0.125 µg/mL	0.704	0.744	0.749
S. aureus DSM 20231 [6], partner 0.25 µg/mL	0.607	0.619	0.652
S. aureus DSM 20231 [6], partner 1 µg/mL	0.0438	0.0565	0.0572

fitness, B. subtilis 168 [8], one replicate
Details	partner 0.1 µg/mL	partner 0.125 µg/mL	partner 0.2 µg/mL	partner 0.4 µg/mL	partner 1 µg/mL	partner 2 µg/mL
first compound 0.625 µg/mL	0.832	0.747	0.759	0.572	0.419	0.373
first compound 1.25 µg/mL	0.866	0.772	0.83	0.555	0.341	0.361
first compound 2.5 µg/mL	0.956	0.785	0.828	0.578	0.396	0.44
